Non-standard residues stand in square brackets, D forms with d. Residues, ends and D or L forms follow the SMILES beside them. pS = N[C@@H](COP(=O)(O)O)C(=O)O
Experiments:
[1] = biological target: T1, Pin1 WW domain (Uniprot: Q13526, Residues: 1–41) (Homo sapiens, UniProt Q13526); test: ITC titration of CPEB1 phosphopeptides with Pin1 WW domain; conditions: nano ITC calorimeter, 12 °C or 25 °C, 20 mM Tris-HCl pH 7.0, 130 mM NaCl, single binding site model, repeated at least twice
T1 construct: The Pin1 WW domain (Uniprot: Q13526, Residues: 1–41); His6 (N); GST (N); made in house
Description: (§1) Pin1 interacts with phosphorylated CPEB1 in Xenopus oocytes, as well as in mammalian cells. […] Therefore, to mimic the in vivo scenario, we measured the affinities of the interactions between recombinant proteins (the isolated WW domain and also the full-length protein) with several peptides containing the phosphorylation sites within CPEB1. These peptides were synthesized using Fmoc Solid-Phase Peptide Synthesis (SPPS) (Supplementary Fig 2). […] All affinities were found in the low μM range (Fig. 2a,b), with the exception of the pS423 site of CPEB1, located in the linker region between the RRM domains, whose affinity was considerably lower than the rest. Our results reveal that the peptides containing pS184 and pS210—the latter known to be essential for CPEB degradation—display the best affinities for Pin1 in vitro. The affinity of the phosphorylation-dependent interaction was about 10-fold higher than that of the unphosphorylated CPEB N-terminal counterparts. In addition, in most of the peptides examined, similar binding affinities and stoichiometries (1:1) were observed using either the full-length Pin1 protein or the truncated WW domain. Only when analyzing the interaction of CPEB1 pS210 and the full-length Pin1 protein we obtained a stoichiometry below 1 (n = 0.85), which cannot be attributed to systematic errors in the determination of the protein concentration. This discrepancy might indicate that in addition to the main complex consisting of a 1:1 protein/peptide ratio, a small population with a 1:2 stoichiometry is also present in solution.
ITC measurements were performed using a nano ITC calorimeter (TA Instruments) at 12 °C or 25 °C. Protein samples were prepared in 20 mM Tris-HCl pH 7.0 and 130 mM NaCl. All samples were degassed and centrifuged prior to the experiments. Protein concentration was measured in a NanoDrop™ 2000 measuring the UV absorption at 280 nm. Peptide concentration was determined by amino acid analysis. […]

Pin1 full-length = biological target: T2, Pin1 full-length (Homo sapiens, UniProt Q13526); test: ITC titration of CPEB1 phosphopeptides with Pin1 full-length; format: binding; conditions: for Kd: nano ITC calorimeter, 12 °C or 25 °C, 20 mM Tris-HCl pH 7.0, 130 mM NaCl, repeated at least twice, for pS210 one Pin1 molecule could interact with two peptides, read-out: Pin1 FL KD
T2 construct: The full-length Pin1 clone was obtained from Addgene; His6 (N); provided by Dustin Maly's Lab
Description: as §1
ITC measurements were performed using a nano ITC calorimeter (TA Instruments) at 12 °C or 25 °C. Protein samples were prepared in 20 mM Tris-HCl pH 7.0 and 130 mM NaCl. All samples were degassed and centrifuged prior to the experiments. Protein concentration was measured in a NanoDrop™ 2000 measuring the UV absorption at 280 nm. Peptide concentration was determined by amino acid analysis. Depending on the expected affinity, sigmoidal curves were optimized by injecting 10- to 15-fold concentrated peptide in 16 × 3 μL steps in a cell containing 190 μL of protein at an adjusted concentration of between 150 and 200 μM , stirring at 200 revolutions per minute (rpm). The delay between injections was set to be of 3 minutes. The NanoAnalyze software (TA Instruments) was used to determine the binding isotherms, assuming a single binding site in each molecule (except for the Pin1 full-length interaction with the CPEB1 pS210 peptide, where one Pin1 molecule could interact with two peptides). Baseline controls were acquired with buffer and pure peptide solutions. Measurements were repeated at least twice.

T1 sequence (Q13526 1-41): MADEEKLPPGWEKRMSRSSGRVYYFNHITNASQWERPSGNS
T2 sequence (Q13526 whole entry): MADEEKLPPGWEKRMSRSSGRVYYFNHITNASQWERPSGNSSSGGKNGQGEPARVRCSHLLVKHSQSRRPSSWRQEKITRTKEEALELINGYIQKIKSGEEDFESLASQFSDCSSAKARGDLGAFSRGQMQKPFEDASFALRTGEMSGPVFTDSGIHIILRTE

Compound | Kd [1] | Kd (Pin1 full-length) | stoichiometry (n), full-length Pin1 (Pin1 full-length; protein/peptide stoichiometry)
CC(=O)NCC(=O)N[C@@H](CCCCN)C(=O)N1CCC[C@H]1C(=O)N[C@@H](COP(=O)(O)O)C(=O)N1CCC[C@H]1C(=O)N[C@@H](CC(C)C)C(=O)NCC(=O)N[C@@H](Cc1ccccc1)C(=O)N[C@@H](CC(C)C)C(=O)N[C@H](C(N)=O)[C@@H](C)O [CPEB1 pS144] (Ac-GKP[pS]PLGFLT-NH2; N-terminus assumed) | 75.4 ± 12.7 µM | 83.5 ± 11.5 µM | –
CC(=O)N[C@@H](C)C(=O)N[C@@H](C)C(=O)N[C@H](C(=O)N[C@H](C(=O)N[C@@H](COP(=O)(O)O)C(=O)N1CCC[C@H]1C(=O)N[C@@H](CC(C)C)C(=O)NCC(N)=O)C(C)C)[C@@H](C)O [CPEB1 pS248] (Ac-AATV[pS]PLG-NH2; N-terminus assumed) | 47.6 ± 7.6 µM | 42.4 ± 8.7 µM | –
CC[C@H](C)[C@H](NC(=O)[C@H](CCCNC(=N)N)NC(=O)[C@H](CC(C)C)NC(C)=O)C(=O)N[C@@H](COP(=O)(O)O)C(=O)N1CCC[C@H]1C(=O)N1CCC[C@H]1C(=O)N[C@@H](CC(C)C)C(=O)N[C@@H](Cc1c[nH]cn1)C(=O)N[C@@H](Cc1ccccc1)C(=O)N[C@@H](CC(C)C)C(=O)N1CCC[C@H]1C(=O)N[C@@H](CC(C)C)C(=O)NCC(=O)NCC(N)=O [CPEB1 pS210] (Ac-LRI[pS]PPLHFLPLGG-NH2; N-terminus assumed) | – | – | 0.85
CSCC[C@H](NC(=O)[C@H](CO)NC(C)=O)C(=O)N[C@@H](CC(C)C)C(=O)N[C@@H](CC(N)=O)C(=O)N[C@@H](COP(=O)(O)O)C(=O)N1CCC[C@H]1C(=O)N[C@@H](CCSC)C(=O)NCC(=O)N[C@@H](CCCCN)C(N)=O [CPEB1 pS138] (Ac-SMLN[pS]PMGK-NH2; N-terminus assumed) | 71.3 ± 9.3 µM | 84.3 ± 10.6 µM | –
